Legend:
Format in all cases: in vivo
Veronica persica (VERPE) [1] = assay: Herbicidal post-emergence action (B), 1280 g/ha
Source text: (§1) ABUTH: Abutilon theophrasti AGSTE: Agrostis tenuis ALOMY: Alopecurus myosuroides AMARE Amaranthus retroflexus DIGSA: Digitaria sanguinalis ECHCG: Echinochloa crus-galli KCHSC: Kochia scoparia LOLRI: Lolium rigidum MATIN: Matricaria inodora POAAN: Poa annua POLCO: Polygonum convolvulus SETVI: Setaria viridis STEME: Stellaria media VERPE: Veronica persica VIOTR: Viola tricolor
(§2) Seeds of mono- and dicotyledonous weed plants were placed in plastic pots in sandy loam soil (doubly sown with in each case one species of mono- or dicotyledonous weed plants per pot), covered with soil and cultivated in a greenhouse under controlled growth conditions. 2 to 3 weeks after sowing, the test plants were treated at the one-leaf stage. The compounds of the invention, formulated in the form of wettable powders (WP) or as emulsion concentrates (EC), were applied onto the green parts of the plants as aqueous suspension or emulsion with addition of 0.5% additive at a water application rate of 600 liters per hectare (converted). After the test plants had been kept in the greenhouse under optimum growth conditions for about 3 weeks, the activity of the preparations was rated visually in comparison to untreated controls. For example, 100% activity=the plants have died, 0% activity=like control plants.
(§3) Tables B1 to B12, below, show the effects of selected compounds of the general formula (I) according to table 1 on various harmful plants and an application rate corresponding to 1280 g/ha obtained by the experimental procedure mentioned above.

[2] = test system: Amaranthus retroflexus (AMARE); assay: Herbicidal post-emergence action (B), 1280 g/ha; conditions: rated visually after about 3 weeks vs untreated controls
Source text: as §1, §2, §3

Stellaria media (STEME) [3] = assay: Herbicidal post-emergence action (B), 1280 g/ha
Source text: as §1, §2, §3

Stellaria media (STEME) [4] = assay: Herbicidal pre-emergence action (A), 1280 g/ha; conditions: visual grading after ca. 3 weeks vs untreated controls
Source text: as §1
(§4) Seeds of mono- and dicotyledonous weed plants were sown in plastic pots (double sowings with one species of mono- and one species of dicotyledonous weed plants per pot), in sandy loam, and covered with soil. The compounds according to the invention, formulated in the form of wettable powders (WP) or as emulsifiable concentrates (EC), were applied to the surface of the covering soil as aqueous suspension or emulsion, with the addition of 0.5% of an additive, at an application rate of 600 l of water per hectare (converted). Following treatment, the pots were placed in a greenhouse and kept under optimum growth conditions for the test plants. The visual grading of the damage to the test plants was carried out after ca. 3 weeks in comparison to untreated controls (herbicidal effect in percent (%): 100% effect=plants have died off, 0% effect=as control plants).
(§5) Tables A1 to A12, below, show the effects of selected compounds of the general formula (I) according to table 1 on various harmful plants and an application rate corresponding to 1280 g/ha obtained by the experimental procedure mentioned above.

[5] = test system: Kochia scoparia (KCHSC; Bassia scoparia); assay: Herbicidal post-emergence action (B), 1280 g/ha
Source text: as §1, §2, §3

[6] = test system: Kochia scoparia (KCHSC; Bassia scoparia); assay: Herbicidal pre-emergence action (A), 1280 g/ha; conditions: visual grading after ca. 3 weeks vs untreated controls
Source text: as §1, §4, §5

Veronica persica (VERPE) [7] = assay: Herbicidal pre-emergence action (A), 1280 g/ha; conditions: visual grading after ca. 3 weeks vs untreated controls
Source text: as §1, §4, §5

Setaria viridis (SETVI) = assay: Herbicidal pre-emergence action (A), 1280 g/ha; conditions: visual grading after ca. 3 weeks vs untreated controls
Source text: as §1, §4, §5

[8] = test system: Digitaria sanguinalis (DIGSA); assay: Herbicidal pre-emergence action (A), 1280 g/ha; conditions: visual grading after ca. 3 weeks vs untreated controls, 100% = plants have died off, 0% = as control plants
Source text: as §1, §4, §5

[9] = test system: Amaranthus retroflexus (AMARE); assay: Herbicidal pre-emergence action (A), 1280 g/ha; conditions: visual grading after ca. 3 weeks vs untreated controls
Source text: as §1, §4, §5

Poa annua (POAAN) [10] = assay: Herbicidal pre-emergence action (A), 1280 g/ha; conditions: visual grading after ca. 3 weeks vs untreated controls, 100% = plants have died off, 0% = as control plants
Source text: as §1, §4, §5

Lolium rigidum (LOLRI) = assay: Herbicidal pre-emergence action (A), 1280 g/ha; conditions: visual grading after ca. 3 weeks vs untreated controls, 100% = plants have died off, 0% = as control plants
Source text: as §1, §4, §5

[11] = test system: Echinochloa crus-galli (ECHCG); assay: Herbicidal pre-emergence action (A), 1280 g/ha; conditions: visual grading after ca. 3 weeks vs untreated controls, 100% = plants have died off, 0% = as control plants
Source text: as §1, §4, §5

[12] = test system: Matricaria inodora (MATIN); assay: Herbicidal pre-emergence action (A), 1280 g/ha; conditions: visual grading after ca. 3 weeks vs untreated controls
Source text: as §1, §4, §5

Poa annua (POAAN) [13] = assay: Herbicidal post-emergence action (B), 1280 g/ha; conditions: rated visually after about 3 weeks vs untreated controls
Source text: as §1, §2, §3

[14] = test system: Alopecurus myosuroides (ALOMY); assay: Herbicidal pre-emergence action (A), 1280 g/ha; conditions: visual grading after ca. 3 weeks vs untreated controls, 100% = plants have died off, 0% = as control plants
Source text: as §1, §4, §5

SMILES	herbicidal effect VERPE (Veronica persica (VERPE) [1]) [%]	herbicidal activity AMARE [2] [%]	herbicidal effect STEME (Stellaria media (STEME) [4]) [%]	herbicidal effect SETVI (Setaria viridis (SETVI)) [%]	POAAN, herbicidal effect in percent (%) (Poa annua (POAAN) [10])	also measured
COc1nc2nc(-c3ccccc3)c(C)cc2s1 [Example I-006]	90	90				
Cc1nc2nc(-c3ccccc3F)ccc2s1 [Example I-019]			90			herbicidal effect STEME (Stellaria media (STEME) [3]): 90%
Cc1cc2sc([S+](C)[O-])nc2nc1-c1ccccc1Cl (stereo not drawn) [Example I-024]			100			herbicidal effect KCHSC [5]: 90%; herbicidal effect KCHSC [6]: 100%; herbicidal effect VERPE (Veronica persica (VERPE) [7]): 90%
Cc1cc2sc([S+](C)[O-])nc2nc1-c1cccc(F)c1 (stereo not drawn) [Example I-039]						herbicidal effect KCHSC [5]: 90%; herbicidal effect STEME (Stellaria media (STEME) [3]): 90%
CSc1nc2nc(-c3ccccc3C)c(C)cc2s1 [Example I-043]	90	100		90		herbicidal effect KCHSC [5]: 90%; herbicidal effect KCHSC [6]: 90%; herbicidal effect VERPE (Veronica persica (VERPE) [7]): 100%; DIGSA, herbicidal effect in percent (%) [8]: 90%; herbicidal effect AMARE [9]: 90%
CCc1cc2sc([S+](C)[O-])nc2nc1-c1ccccc1 (stereo not drawn) [Example I-050]	90	90	90		100	herbicidal effect KCHSC [6]: 90%; LOLRI, herbicidal effect in percent (%) (Lolium rigidum (LOLRI)): 90%; ECHCG, herbicidal effect in percent (%) [11]: 100%; herbicidal effect MATIN [12]: 90%; herbicidal effect AMARE [9]: 90%
O=C(O)CNc1nc2nc(-c3ccccc3F)c(Br)cc2s1 [Example I-052]		100				
Cc1cc2sc(Cc3ccccc3F)nc2nc1-c1ccccc1 [Example I-056]		100	100		100	herbicidal activity POAAN (Poa annua (POAAN) [13]): 100%
CCc1cc2sc(S(C)(=O)=O)nc2nc1-c1ccccc1C [Example I-061]			90			herbicidal effect KCHSC [5]: 90%; herbicidal effect VERPE (Veronica persica (VERPE) [7]): 90%; herbicidal effect AMARE [9]: 90%
C=CCNC(=O)CNc1nc2nc(-c3ccccc3F)c(Br)cc2s1 [Example I-067]		90				
Cc1cc2sc(Cc3ccccc3F)nc2nc1-c1ccccc1F [Example I-073]			90		100	
Cc1cc2sc(S(C)(=O)=O)nc2nc1-c1ccccc1 [Example I-080]	90		100		100	
Cc1nc2nc(-c3ccc(F)cc3)c(C)cc2s1 [Example I-090]		100				herbicidal effect STEME (Stellaria media (STEME) [3]): 90%
CCc1cc2sc(OC)nc2nc1-c1ccccc1OC [Example I-097]	100			100		herbicidal effect STEME (Stellaria media (STEME) [3]): 100%
CCOc1nc2nc(-c3ccccc3F)c(Br)cc2s1 [Example I-101]	90					
Cc1nc2nc(-c3ccccc3Cl)c(C)cc2s1 [Example I-103]			100	90	90	ECHCG, herbicidal effect in percent (%) [11]: 90%; DIGSA, herbicidal effect in percent (%) [8]: 90%
CCc1cc2sc(SC)nc2nc1-c1ccccc1C [Example I-106]			100	100		
Cc1nc2nc(-c3ccccc3)c(C)cc2s1 [Example I-115]			100	100	100	ECHCG, herbicidal effect in percent (%) [11]: 100%; herbicidal effect MATIN [12]: 90%

SMILES	herbicidal effect VERPE (Veronica persica (VERPE) [1]) [%]	herbicidal activity AMARE [2] [%]	herbicidal effect STEME (Stellaria media (STEME) [4]) [%]	herbicidal effect SETVI (Setaria viridis (SETVI)) [%]	POAAN, herbicidal effect in percent (%) (Poa annua (POAAN) [10])	also measured
Cc1ncccc1-c1nc2ncsc2cc1Br [Example I-129]				100	100	herbicidal effect KCHSC [6]: 90%; ALOMY, herbicidal effect in percent (%) [14]: 90%; LOLRI, herbicidal effect in percent (%) (Lolium rigidum (LOLRI)): 90%; herbicidal effect AMARE [9]: 90%
Cc1sc(Br)cc1-c1nc2ncsc2cc1Br [Example I-138]	90		90	90	100	herbicidal activity POAAN (Poa annua (POAAN) [13]): 90%; LOLRI, herbicidal effect in percent (%) (Lolium rigidum (LOLRI)): 90%
Cc1nc2nc(-c3cc(Br)sc3C)c(Br)cc2s1 [Example I-142]					100	herbicidal effect MATIN [12]: 100%
NC(=O)c1nc2nc(-c3ccccc3F)c(Br)cc2s1 [Example I-154, 6-bromo-5-(2-fluorophenyl)thiazolo[4,5-b]pyridine-2-carboxamide]	100	90	90		90	herbicidal effect KCHSC [5]: 90%; herbicidal effect AMARE [9]: 90%
Fc1ccccc1-c1nc2nc(S)sc2cc1Br [Example I-156, 6-bromo-5-(2-fluorophenyl)thiazolo[4,5-b]pyridine-2-thiol]		100	90			
CCc1cc2sc(S)nc2nc1-c1ccccc1 [Example I-162]	100	90	90			herbicidal effect KCHSC [5]: 90%; herbicidal effect VERPE (Veronica persica (VERPE) [7]): 90%
COc1ccccc1-c1nc2nc(S)sc2cc1C [Example I-164]	90			100	100	herbicidal effect KCHSC [6]: 90%
Cc1cc2sc(S)nc2nc1C1=CCCCC1 [Example I-174]					100	herbicidal effect AMARE [9]: 100%
CCc1cc2sc(S)nc2nc1C1=CCCCC1 [Example I-176]	90		90	100		herbicidal effect KCHSC [5]: 90%; herbicidal effect KCHSC [6]: 90%; DIGSA, herbicidal effect in percent (%) [8]: 90%
Cc1cc(-c2nc3ncsc3cc2C)c(C)s1 [Example I-197]	90			100	100	herbicidal effect KCHSC [6]: 90%; herbicidal effect AMARE [9]: 90%
Cc1cc2scnc2nc1-c1c(C)sc(C)c1C [Example I-199]		100	100			herbicidal effect MATIN [12]: 90%
Cc1scc(-c2ccc3scnc3n2)c1C [Example I-201]			100	90		herbicidal effect STEME (Stellaria media (STEME) [3]): 90%; herbicidal effect KCHSC [6]: 90%; ECHCG, herbicidal effect in percent (%) [11]: 100%
Cc1cnsc1-c1nc2ncsc2cc1Br [Example I-202]			100			
Cc1cc2scnc2nc1-c1scnc1C [Example I-203]		90	90	100		herbicidal effect STEME (Stellaria media (STEME) [3]): 90%; ECHCG, herbicidal effect in percent (%) [11]: 100%; herbicidal effect AMARE [9]: 90%
Cc1ncsc1-c1nc2ncsc2cc1Br [Example I-204]	90		90	100	90	ECHCG, herbicidal effect in percent (%) [11]: 90%; herbicidal effect AMARE [9]: 90%
Cc1cnsc1-c1nc2nc(S)sc2cc1Br [Example I-208]	90	100				
Cc1ncsc1-c1nc2nc(S)sc2cc1Br [Example I-209]	90	90				

From patent US20230151025A1, “SUBSTITUTED THIAZOLOPYRIDINES, SALTS THEREOF AND THEIR USE AS HERBICIDALLY ACTIVE SUBSTANCES” (Bayer Aktiengesellschaft, priority 2020, published 2023)
